Patent publication US12410208B2, “(2-acetamidyl)thio-beta-D-galactopyranoside derivatives” (Idorsia Pharmaceuticals Ltd, priority 2020, dated 2025)
Like-named read-outs stand apart in the source and are kept apart here.

What was measured:
[1] = target: biotinylated human Gal-3 (hGal-3) (Homo sapiens, UniProt P17931); assay: Competitive binding assay: biotinylated hGal-3 binding to microplate-adsorbed asialofetuin (ASF), spectrophotometric
Experimental: If not explicitly mentioned otherwise, the inhibition data refer to the binding of biotinylated human Gal-3 (hGal-3).
(§1) Biological Assay Evaluation of Compound Inhibitory Activity (IC50)
The inhibitory activity of compounds is determined in competitive binding assays.
Briefly, compounds are serially diluted in DMSO (working dilutions).
(§2) Plates are incubated for 3 hours at 4° C., then washed with cold assay buffer (3×50 uL), incubated for 1 hour with 25 μL/well of a streptavidin-peroxidase solution (diluted in assay buffer to 80 ng/mL) at 4° C., followed by further washing steps with assay buffer (3×50 uL). Finally, 25 μL/well of ABTS substrate is added.
(§3) The calculated IC50 values may fluctuate depending on the daily assay performance. Fluctuations of this kind are known to those skilled in the art. IC50 values from several measurements are given as mean values.

[2] = target: human Gal-1 (hGal-1) (Homo sapiens, UniProt P09382); assay: Competitive binding assay: biotinylated hGal-1 binding to microplate-adsorbed asialofetuin (ASF), spectrophotometric; settings: hGal-1 binding to asialofetuin; Table 15; R and S epimers of selected Examples also listed; read-out: IC50 (Galectin-1 inhibition)
Chain of human Gal-1 (hGal-1) (P09382 whole entry): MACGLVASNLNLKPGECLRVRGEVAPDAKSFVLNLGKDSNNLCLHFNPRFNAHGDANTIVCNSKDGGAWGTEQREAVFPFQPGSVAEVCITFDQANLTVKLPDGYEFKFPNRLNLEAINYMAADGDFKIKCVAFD
Experimental: as §1
The inhibitory activity of compounds is determined in competitive binding assays. This spectrophotometric assay measures the binding of biotinylated human Gal-3 (hGal-3) or human Gal-1 (hGal-1), respectively, to a microplate-adsorbed glycoprotein, asialofetuin (ASF) (Proc Natl Acad Sci USA. 2013 Mar. 26; 110(13):5052-7.).
Briefly, compounds are serially diluted in DMSO (working dilutions). ASF-coated 384well plates are supplemented with 22.8 μL/well of biotinylated hGal-3 or hGal-1 in assay buffer (i.e. 300-1000 ng/mL biotinylated hGal-3 or hGal-1) to which 1.2 μL of compound working dilutions are added and mixed.
as §2, §3

[3] = Table 13, hGal-3, read-out: IC50 (Gal-3 inhibition)
[4] = Gal-3 inhibition, Table 5, read-out: IC50
[5] = Gal-3 inhibition, Table 4, read-out: IC50
[6] = Table 8, hGal-3, read-out: IC50 (Gal-3 inhibition)
[7] = Gal-3 inhibition, Table 3, read-out: IC50

Chain of biotinylated human Gal-3 (hGal-3) (P17931 whole entry): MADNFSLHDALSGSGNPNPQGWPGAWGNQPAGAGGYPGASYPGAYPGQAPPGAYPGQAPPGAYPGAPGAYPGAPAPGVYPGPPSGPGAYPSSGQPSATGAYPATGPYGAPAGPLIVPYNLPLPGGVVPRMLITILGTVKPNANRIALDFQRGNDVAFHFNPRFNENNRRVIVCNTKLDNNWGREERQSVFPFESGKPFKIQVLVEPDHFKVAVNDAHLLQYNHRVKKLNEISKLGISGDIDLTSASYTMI

Molecule	IC50 [2] [nM]	IC50 [1, 4] [nM]	other results
1-(4,4-Difluoropiperidin-1-yl)-2-(4-hydroxy-2,2-dimethyltetrahydro-2H-pyran-4-yl)-2-(((2S,3R,4S,5R,6R)-5-hydroxy-6-(hydroxymethyl)-3-methoxy-4-(4-(3,4,5-trifluorophenyl)-1H-1,2,3-triazol-1-yl)tetrahydro-2H-pyran-2-yl)thio)ethan-1-one [Example 2.43.226.I.]	460	–	IC50 [1, 3]: 250 nM
2-(4,4-Difluoro-1-hydroxycyclohexyl)-2-(((2S,3R,4S,5R,6R)-3,5-dihydroxy-6-(hydroxymethyl)-4-(4-(3,4,5-trifluorophenyl)-1H-1,2,3-triazol-1-yl)tetrahydro-2H-pyran-2-yl)thio)-1-(piperidin-1-yl)ethan-1-one [Example 2.44.208.]	210	70	–
2-(4,4-Difluoro-1-hydroxycyclohexyl)-2-(((2S,3R,4S,5R,6R)-3,5-dihydroxy-6-(hydroxymethyl)-4-(4-(3,4,5-trifluorophenyl)-1H-1,2,3-triazol-1-yl)tetrahydro-2H-pyran-2-yl)thio)-N-(2-fluoro-2-methylpropyl)-N-methylacetamide [Example 2.44.222.]	350	130	–
2-(((2S,3R,4S,5R,6R)-3,5-Dihydroxy-6-(hydroxymethyl)-4-(4-(3,4,5-trifluorophenyl)-1H-1,2,3-triazol-1-yl)tetrahydro-2H-pyran-2-yl)thio)-2-(4-hydroxy-1-methylpiperidin-4-yl)-N-isobutyl-N-methylacetamide [Example 2.40.200.]	190	–	IC50 [1, 5]: 80 nM
CN(C)C(=O)C(S[C@@H]1O[C@H](CO)[C@H](O)[C@H](n2cc(-c3cc(F)c(F)c(F)c3)nn2)[C@H]1O)C1(O)CCC(F)(F)CC1 (mixture of isomers) [Example 2.44.201., 2-(4,4-Difluoro-1-hydroxycyclohexyl)-2-(((2S,3R,4S,5R,6R)-3,5-dihydroxy-6-(hydroxymethyl)-4-(4-(3,4,5-trifluorophenyl)-1H-1,2,3-triazol-1-yl)tetrahydro-2H-pyran-2-yl)thio)-N,N-dimethylacetamide]	230	100	–
CN(C)C(=O)C(S[C@@H]1O[C@H](CO)[C@H](O)[C@H](n2cc(-c3cc(F)c(F)c(F)c3)nn2)[C@H]1O)C1(O)CCC(F)(F)CC1 (single isomer, unassigned) [Example 2.44.201R.]	1710	1330	–
CN(C)C(=O)C(S[C@@H]1O[C@H](CO)[C@H](O)[C@H](n2cc(-c3cc(F)c(F)c(F)c3)nn2)[C@H]1O)C(C)(C)O (stereo partly drawn) [Example 2.31.201., 2-(((2S,3R,4S,5R,6R)-3,5-Dihydroxy-6-(hydroxymethyl)-4-(4-(3,4,5-trifluorophenyl)-1H-1,2,3-triazol-1-yl)tetrahydro-2H-pyran-2-yl)thio)-3-hydroxy-N,N,3-trimethylbutanamide]	1920	–	IC50 [1, 7]: 270 nM
CCN(CC)C(=O)C(S[C@@H]1O[C@H](CO)[C@H](O)[C@H](n2cc(-c3cc(F)c(F)c(F)c3)nn2)[C@H]1O)C(C)(C)O (stereo partly drawn) [Example 2.31.202., 2-(((2S,3R,4S,5R,6R)-3,5-Dihydroxy-6-(hydroxymethyl)-4-(4-(3,4,5-trifluorophenyl)-1H-1,2,3-triazol-1-yl)tetrahydro-2H-pyran-2-yl)thio)-N,N-diethyl-3-hydroxy-3-methylbutanamide]	2770	–	IC50 [1, 7]: 160 nM
CCN(C)C(=O)C(S[C@@H]1O[C@H](CO)[C@H](O)[C@H](n2cc(-c3cc(F)c(F)c(F)c3)nn2)[C@H]1O)C(C)(C)O (stereo partly drawn) [Example 2.31.203., 2-(((2S,3R,4S,5R,6R)-3,5-Dihydroxy-6-(hydroxymethyl)-4-(4-(3,4,5-trifluorophenyl)-1H-1,2,3-triazol-1-yl)tetrahydro-2H-pyran-2-yl)thio)-N-ethyl-3-hydroxy-N,3-dimethylbutanamide]	880	–	IC50 [1, 7]: 210 nM
Cc1cc(-c2cn([C@H]3[C@@H](O)[C@@H](CO)O[C@@H](S[C@@H](C(=O)N(C)C4CC4)C4(O)CCC(F)(F)CC4)[C@@H]3O)nn2)cnc1F [Example 21.44.221R., (R)-N-Cyclopropyl-2-(4,4-difluoro-1-hydroxycyclohexyl)-2-(((2S,3R,4S,5R,6R)-4-(4-(6-fluoro-5-methylpyridin-3-yl)-1H-1,2,3-triazol-1-yl)-3,5-dihydroxy-6-(hydroxymethyl)tetrahydro-2H-pyran-2-yl)thio)-N-methylacetamide]	220	–	–
(R)-2-(((2S,3R,4S,5R,6R)-3,5-dihydroxy-6-(hydroxymethyl)-4-(4-(3,4,5-trifluorophenyl)-1H-1,2,3-triazol-1-yl)tetrahydro-2H-pyran-2-yl)thio)-3-hydroxy-3-methyl-1-(3-methylazetidin-1-yl)butan-1-one [Example 2.31.205R.]	20000	–	–

The next molecules have a lower IC50 [2] than those just listed; values first:

IC50 [2] [nM]	IC50 [1, 4] [nM]	Molecule	other results
150	–	2-(1,1-Difluoro-6-hydroxyspiro[2.5]octan-6-yl)-1-(4,4-difluoropiperidin-1-yl)-2-(((2S,3R,4S,5R,6R)-5-hydroxy-6-(hydroxymethyl)-3-methoxy-4-(4-(3,4,5-trifluorophenyl)-1H-1,2,3-triazol-1-yl)tetrahydro-2H-pyran-2-yl)thio)ethan-1-one [Example 2.73.226.I.]	IC50 [1, 3]: 100 nM
140	60	2-(4,4-Difluoro-1-hydroxycyclohexyl)-2-(((2S,3R,4S,5R,6R)-3,5-dihydroxy-6-(hydroxymethyl)-4-(4-(3,4,5-trifluorophenyl)-1H-1,2,3-triazol-1-yl)tetrahydro-2H-pyran-2-yl)thio)-N-ethyl-N-methylacetamide [Example 2.44.203.]	–
160	–	2-(((2S,3R,4S,5R,6R)-3,5-Dihydroxy-6-(hydroxymethyl)-4-(4-(3,4,5-trifluorophenyl)-1H-1,2,3-triazol-1-yl)tetrahydro-2H-pyran-2-yl)thio)-N-ethyl-2-(4-hydroxy-1-methylpiperidin-4-yl)-N-methylacetamide [Example 2.40.203.]	IC50 [1, 5]: 80 nM
120	50	CN(CC1(F)CCCC1)C(=O)C(S[C@@H]1O[C@H](CO)[C@H](O)[C@H](n2cc(-c3cc(F)c(F)c(F)c3)nn2)[C@H]1O)C1(O)CCC(F)(F)CC1 (mixture of isomers) [Example 2.44.223., 2-(4,4-Difluoro-1-hydroxycyclohexyl)-2-(((2S,3R,4S,5R,6R)-3,5-dihydroxy-6-(hydroxymethyl)-4-(4-(3,4,5-trifluorophenyl)-1H-1,2,3-triazol-1-yl)tetrahydro-2H-pyran-2-yl)thio)-N-((1-fluorocyclopentyl)methyl)-N-methylacetamide]	–
110	–	CCN(C)C(=O)C(S[C@@H]1O[C@H](CO)[C@H](O)[C@H](n2cc(-c3cc(F)c(F)c(F)c3)nn2)[C@H]1O)C1(O)CCN(S(C)(=O)=O)CC1 (mixture of isomers) [Example 2.47.203., 2-(((2S,3R,4S,5R,6R)-3,5-Dihydroxy-6-(hydroxymethyl)-4-(4-(3,4,5-trifluorophenyl)-1H-1,2,3-triazol-1-yl)tetrahydro-2H-pyran-2-yl)thio)-N-ethyl-2-(4-hydroxy-1-(methylsulfonyl)piperidin-4-yl)-N-methylacetamide]	IC50 [1, 6]: 30 nM
180	40	CN(C)C(=O)C(S[C@@H]1O[C@H](CO)[C@H](O)[C@H](n2cc(-c3cc(F)c(F)c(F)c3)nn2)[C@H]1O)C1(O)CCC(F)(F)CC1 (single isomer, unassigned) [Example 2.44.201S.]	–
30	–	CCN(C)C(=O)C(S[C@@H]1O[C@H](CO)[C@H](O)[C@H](n2cc(-c3cc(F)c(F)c(F)c3)nn2)[C@H]1O)C1(O)CCN(S(C)(=O)=O)CC1 (single isomer, unassigned) [Example 2.47.203S.]	IC50 [1, 6]: 10 nM
160	–	CCN(C)C(=O)C(S[C@@H]1O[C@H](CO)[C@H](O)[C@H](n2cc(-c3cccc(F)c3)nn2)[C@H]1O)C1(O)CCOCC1 (stereo partly drawn) [Example 1.41.203., N-Ethyl-2-(((2S,3R,4S,5R,6R)-4-(4-(3-fluorophenyl)-1H-1,2,3-triazol-1-yl)-3,5-dihydroxy-6-(hydroxymethyl)tetrahydro-2H-pyran-2-yl)thio)-2-(4-hydroxytetrahydro-2H-pyran-4-yl)-N-methylacetamide]	IC50 ([1]; Table 11, hGal-3, read-out: IC50 (Gal-3 inhibition)): 130 nM
70	–	Cc1cc(-c2cn([C@H]3[C@@H](O)[C@@H](CO)O[C@@H](S[C@H](C(=O)N(C)C4CC4)C4(O)CCC(F)(F)CC4)[C@@H]3O)nn2)cnc1F [Example 21.44.221S., (S)-N-Cyclopropyl-2-(4,4-difluoro-1-hydroxycyclohexyl)-2-(((2S,3R,4S,5R,6R)-4-(4-(6-fluoro-5-methylpyridin-3-yl)-1H-1,2,3-triazol-1-yl)-3,5-dihydroxy-6-(hydroxymethyl)tetrahydro-2H-pyran-2-yl)thio)-N-methylacetamide]	–
